Experimental findings from patent publication US7507734B2, “Pyridazinone derivatives” (Aventis Pharma S.A., priority 2004, dated 2009) are described below.

A word on the IC50: it is the concentration that gives 50% inhibition.

For this test, the target named is CDK2/Cyclin E kinase (Homo sapiens, UniProt P24941). As to the kind of experiment: CDK2/Cyclin E Flashplate Assay: 96-well format. To be noted: streptavidin-coated flashplate, biotinylated-Rb peptide substrate 10 μM, 33PγATP/ATP 1 μM, CDK2/Cyclin E 20 nM, 30 minute at 30° C., 1% DMSO. The class given is biochemical. As to the method: Functional Measurements for Determination of IC50-Values
CDK2/Cyclin E Flashplate Assay: 96-Well Format
A 96-well streptavidin-coated flashplate is used to assay potency of compounds according formula (I) against CDK2/Cyclin E kinase. To carry out the assay, biotinylated-Rb peptide substrate (Biotin-[…]-OH) is solubilized at 1 mM in kinase buffer (Hepes 50 mM, NaCI 1 mM, MgCI2 5mM pH 7.5) as a stock solution conserved at −20° C. in aliquots of 110 μl. The day of the experiment, an aliquot of this solution is thawed and diluted to 14.3 μM in kinase buffer, containing 1 mM dithithreitol (DTT) added in the buffer extemporarily.
70 μl of this solution is added in each well of the flashplate in order to achieve a final concentration of 10 μM (100 μl reactionnal volume). Serial dilutions of inhibitors are prepared in DMSO from 10 mM stock solutions in order to achieve 1000 μM, 333.3 μM, 111.1 μM, 37.03 μM, 12.35 μM, 4.11 μM and 1.37 μM and all rediluted in kinase buffer+DTT in order to achieve 100 μM, 33.3 μM, 11.1 μM, 3.7 μM, 1.24 μM, 0.41 μM and 0.14 μM in DMSO 10% buffer (vol/vol). 10 μl of each of these solutions (or 10 μl of buffer+DTT for controls) are transferred to the testplate wells in order to achieve 10 μM, 3.33 μM, 1.11 μM, 0.37 μM, 0.12 μM, 0.04 μM and 0.01 μM as final concentrations, 1% DMSO (vol/vol). In each well, 10 μl of a solution of a mix of ^33PγATP/ATP are added in order to achieve 1 μM final concentration and a total of 1 μCi. The kinase reaction is initiated by addition of 10 μl of a solution at 200 nM of CDK2/Cyclin E in kinase buffer+DTT (or buffer+DTT for blanks) in order to achieve 20 nM final concentration. After addition of each reagent, the test-plate is shaken. The plates are incubated 30 minute at 30° C. with a shaking at 650 rpm. At the end of the incubation, the plates are washed 3 times with 300 μl of PBS (without calcium and magnesium) per well. The incorporation of ^33P to the peptide is measured by scintillation counting.

As for `O=c1[nH]nc(-c2ccc(O)cc2)cc1-c1cc2ccccc2[nH]1` [Example 2, 6-(4-Hydroxy-phenyl)-4-(1H-indol-2-yl)-2H-pyridazin-3-one], the IC50 is 0.033 µM. As to `Cc1ccc2[nH]c(-c3cc(-c4ccncc4)n[nH]c3=O)cc2c1` [Example 14, 4-(5-Methyl-1H-indol-2-yl)-6-pyridin-4-yl-2H-pyridazin-3-one], it took 0.026 µM to reach half-maximal inhibition (IC50).

In turn, `CCN(CC)CCOc1ccc2cc(-c3cc(-c4ccncc4)n[nH]c3=O)[nH]c2c1` [Example 20, 4-[6-(2-Diethylamino-ethoxy)-1H-indol-2-yl]-6-pyridin-4-yl-2H-pyridazin-3-one] displayed a half-maximal inhibitory concentration (IC50) of 0.02 µM. The IC50 values of the last two compounds are within 1.5-fold of each other.

`O=c1[nH]nc(-c2ccncc2)cc1-c1cc2ccc(OCc3ccccc3)cc2[nH]1` [Example 23, 4-(6-Benzyloxy-1H-indol-2-yl)-6-pyridin-4-yl-2H-pyridazin-3-one]: the IC50 was 0.048 µM. `CN(C)CCCOc1ccc2[nH]c(-c3cc(-c4ccncc4)n[nH]c3=O)cc2c1` [Example 30, 4-[5-(3-Dimethylamino-propoxy)-1H-indol-2-yl]-6-pyridin-4-yl-2H-pyridazin-3-one] showed an IC50 of 0.035 µM.
